Laboratory results published in patent US20250179027A1, “CYCLOALKYL OR HETEROCYCLYL SUBSTITUTED HETEROARYL COMPOUND, AND COMPOSITION AND USE THEREOF” (Shenzhen TargetRx, Inc., priority 2022, published 2025).

The molecules below were run against T1, ITK (Homo sapiens, UniProt Q08881) (assay: HTRF kinase activity inhibition assay, ITK). Conditions: HTRF TK kit.
T1 construct: purchased Carna 08-181
T1 sequence (Q08881 1-620): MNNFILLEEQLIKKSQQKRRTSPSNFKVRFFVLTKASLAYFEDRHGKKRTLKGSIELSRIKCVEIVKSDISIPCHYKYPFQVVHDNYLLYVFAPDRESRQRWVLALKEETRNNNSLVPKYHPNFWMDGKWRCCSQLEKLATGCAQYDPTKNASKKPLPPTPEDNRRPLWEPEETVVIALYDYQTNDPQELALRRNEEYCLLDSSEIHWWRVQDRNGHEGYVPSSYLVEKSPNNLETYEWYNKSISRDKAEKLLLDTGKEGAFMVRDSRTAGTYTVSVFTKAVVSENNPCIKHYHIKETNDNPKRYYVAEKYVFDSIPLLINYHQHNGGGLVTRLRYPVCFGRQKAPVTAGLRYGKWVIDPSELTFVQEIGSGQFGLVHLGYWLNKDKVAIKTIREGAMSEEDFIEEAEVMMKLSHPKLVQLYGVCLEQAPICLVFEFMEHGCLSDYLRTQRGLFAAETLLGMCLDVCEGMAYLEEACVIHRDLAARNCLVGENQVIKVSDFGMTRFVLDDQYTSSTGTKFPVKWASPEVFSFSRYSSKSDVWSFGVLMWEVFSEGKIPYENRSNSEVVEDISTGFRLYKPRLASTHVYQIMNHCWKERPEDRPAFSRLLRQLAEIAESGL
Assay type: biochemical
From the text: In this assay, the HTRF TK Kit (Catalog No. 62TKOPEC) provided by Cisbio was used to detect the inhibitory activity of compounds on BTK kinase and BTK C481S kinase and the selectivity of compounds relative to EGFR, ITK and TEC kinases.
Reagents and consumables: BTK kinase (Invitrogen, Catalog No. PV3587), BTK C481S (Carna, Product No. 08-547), ITK (Carna, Product No. 08-181), EGFR (Carna, Product No. 08-115), TEC (Carna, Product No. 08-182), HTRF-TK kit (Cisbio, Product No. 62TKOPEC), MgCl2 (Sigma, Product No. M1028), MnCl2 (Sigma, Product No. M1787), DTT (Sigma, Product No. D0632), ATP (Sigma, Product No. A7699-1 g), DMSO (Sigma, Product No. D2650), 384-well plate (PE, Product No. 6008280).
The entire operation steps were carried out on ice, and the total reaction volume was 10 μL. The compound (4 μL), substrate and ATP (4 μL), kinase (2 μL) were added in sequence to a 384-well plate, and shaked for 30 seconds. After an appropriate time at room temperature, the detection reagent was added. After 1 hour at room temperature, the plate was detected with a microplate reader. The specific steps were as follows: • a) 1× kinase buffer solution required for kinase detection was calculated according to the amount of the detection compound, and prepared as needed; • b) compounds with 2.5×working concentration were prepared, the 100 times gradient concentration solution of compounds was diluted by 4 μL to the desired concentration, mixed well, and added to each well at 4 μL per well; • c) 5×working concentration of substrate and ATP were prepared, mixed in a ratio of 1:1 before adding to a 384-well plate, and added to each well at 4 μL per well; • d) 5×working concentration of kinase was prepared, and 2 μL was added to each well; • e) the plate was shaked on a microplate oscillator for 30 seconds, sealed with a sealing membrane, and reacted at room temperature for an appropriate time; • f) 4×working concentrations of streptavidin XL-665 and TK antibody-cryptate compound were prepared, mixed in a ratio of 1:1 before adding to a 384-well plate, and added to each well at 10 μL per well; • g) the plate was read after reacting at room temperature for 1 hour; • h) the wells with only substrate, ATP and 1% DMSO added but no kinase were blank control wells, and the wells with only substrate, ATP, 1% DMSO and kinase were positive control wells.
Readings: The values of 620 nm (cryptate) and 665 nm (XL665) were read with a BioTek Synerg Neo2 microplate reader, the ratio of 665/620 per well was calculated, and the data were exported. Data analysis: IC50 was calculated using GraphPad Prism 7.0 software. The following nonlinear fitting formula was used to obtain the IC50 (half inhibitory concentration) of compounds:
[formula] • X: Compound concentration log value • Y: Inhibition rate (% inhibition)
The kinase inhibition rate (% inhibition rate) was calculated as: […]

Structure (SMILES) | IC50 [µM]
COc1ccc(F)cc1C(=O)NCc1ccc(-c2nn(C3CCCC(O)C3)c3ncnc(N)c23)cc1 (single isomer, unassigned) [Example 8] | > 10
COc1ccc(F)cc1C(=O)NCc1ccc(-c2nn(C3CCC(CO)OC3)c3ncnc(N)c23)cc1 (single isomer, unassigned) [Example 18, N-(4-(4-amino-1-(6-(hydroxymethyl)tetrahydro-2H-pyran-3-yl)-1H-pyrazolo[3,4-d]pyrimidin-3-yl)benzyl)-5-fluoro-2-methoxybenzamide] | > 10
COc1ccc(F)cc1C(=O)NCc1ccc(-c2nn(C3CCCC(O)C3)c3ncnc(N)c23)cc1 (single isomer, unassigned) [Example 7] | > 10
COc1ccc(F)cc1C(=O)NCc1ccc(-c2nn(C3CCCC(O)C3)c3ncnc(N)c23)cc1 (single isomer, unassigned) [Example 5] | > 10
COc1ccc(F)cc1C(=O)NCc1ccc(-c2nc(C3CCCC(O)C3)n3ccnc(N)c23)cc1 (stereo not drawn) [Example 20, N-(4-(8-amino-3-(3-hydroxycyclohexanyl)imidazo[1,5-a]pyrazin-1-yl)benzyl)-5-fluoro-2-methoxybenzamide] | > 10
COc1ccc(F)cc1C(=O)NCc1ccc(-c2nc(C3CCCC(O)C3)n3ccnc(N)c23)cc1 (single isomer, unassigned) [Example 22, N-(4-(8-amino-3-(3-hydroxycyclohexanyl)imidazo[1,5-a]pyrazin-1-yl)benzyl)-5-fluoro-2-methoxybenzamide] | > 10
COc1ccc(F)cc1C(=O)NCc1ccc(-c2nn(C3CCCC(O)C3)c3ncnc(N)c23)cc1 (stereo not drawn) [Example 4] | > 10
COc1ccc(F)cc1C(=O)NCc1ccc(-c2cc(C3CCC(CO)OC3)n3ncnc(N)c23)cc1 (single isomer, unassigned) [Example 60, N-(4-(4-amino-7-(6-(hydroxymethyl)tetrahydro-2H-pyran-3-yl)pyrrolo[2,1-f][1,2,4]triazin-5-yl)benzyl)-5-fluoro-2-methoxybenzamide] | > 10
COc1ccc(F)cc1C(=O)NCc1ccc(-c2cc(C3CCC(CO)OC3)n3ncnc(N)c23)cc1 (single isomer, unassigned) [Example 59, N-(4-(4-amino-7-(6-(hydroxymethyl)tetrahydro-2H-pyran-3-yl)pyrrolo[2,1-f][1,2,4]triazin-5-yl)benzyl)-5-fluoro-2-methoxybenzamide] | > 10
COc1ccc(F)cc1C(=O)NCc1ccc(-c2nn(C3CCCC(O)C3)c3ncnc(N)c23)cc1 (single isomer, unassigned) [Example 6] | > 10

Second part, the molecule after the results:

IC50 [µM] | Structure (SMILES)
> 10 | COc1ccc(F)cc1C(=O)NCc1ccc(-c2nn([C@H]3CC[C@@H](O)CC3)c3ncnc(N)c23)cc1 [Example 30, N-(4-(4-amino-1-((1S,4S)-4-hydroxycyclohexyl)-1H-pyrazolo[3,4-d]pyrimidin-3-yl)benzyl)-5-fluoro-2-methoxybenzamide]
> 10 | COc1ccc(F)cc1C(=O)NCc1ccc(-c2nn([C@H]3CC[C@H](CO)CC3)c3ncnc(N)c23)cc1 [Example 56, trans-N-(4-(4-amino-1-((1R,4R)-4-(hydroxymethyl)cyclohexyl)-1H-pyrazolo[3,4-d]pyrimidin-3-yl)benzyl)-5-fluoro-2-methoxybenzamide]
> 10 | COc1ccc(F)cc1C(=O)NCc1ccc(-c2nn(C3CCC(O)CC3)c3ncnc(N)c23)cc1 [Example 29, N-(4-(4-amino-1-((1R,4R)-4-hydroxycyclohexyl)-1H-pyrazolo[3,4-d]pyrimidin-3-yl)benzyl)-5-fluoro-2-methoxybenzamide]
> 10 | COc1ccc(F)cc1C(=O)NCc1ccc(-c2nn([C@H]3CC[C@@H](CO)CC3)c3ncnc(N)c23)cc1 [Example 55, cis-N-(4-(4-amino-1-((1S,4S)-4-(hydroxymethyl)cyclohexyl)-1H-pyrazolo[3,4-d]pyrimidin-3-yl)benzyl)-5-fluoro-2-methoxybenzamide]
> 10 | COc1ccc(F)cc1C(=O)NCc1ccc(-c2nn(C3CCC(O)C3)c3ncnc(N)c23)cc1 (single isomer, unassigned) [Example 31, N-(4-(4-amino-1-(3-hydroxycyclopentanyl)-1H-pyrazolo[3,4-d]pyrimidin-3-yl)benzyl)-5-fluoro-2-methoxybenzamide]
